Structures can show the parent of a compound that is named as a salt.
Tests used:
[1] = stability of crystalline form versus the anhydrous mesylate salt; assay type: physicochemical; details: compared with the anhydrous mesylate salt

melting point [°C] | SMILES | stability of crystalline form / shelf life [1]
– | C[C@@H]([C@@H](O)c1ccc(O)cc1)N1CCC(O)(c2ccccc2)CC1 [mesylate salt trihydrate, (1S,2S)-1-(4-Hydroxyphenyl)-2-(4-hydroxy-4-phenylpiperidino)-1-propanol, Methanesulfonate Salt Trihydrate] | more stable crystalline form than the anhydrous mesylate salt
102.5 to 103.8 | C[C@@H](C(=O)c1ccc(OCc2ccccc2)cc1)N1CCC(O)(c2ccccc2)CC1 | –
